What was measured:
Test in all cases: KINOMEscan
Type in all cases: binding
Conditions in all cases: read-out: %Ctrl @ 1000 nM
[1] = target: T1, FLT3-autoinhibited (Homo sapiens, UniProt P36888)
T1 construct: purchased DiscoveRx KINOMEscan

[2] = target: T2, PIM3 (Homo sapiens, UniProt Q86V86)
T2 construct: purchased DiscoveRx KINOMEscan

[3] = target: T3, RPS6KA5(Kin.Dom.1-N-terminal) (Homo sapiens, UniProt O75582)
T3 construct: RPS6KA5(Kin.Dom.1-N-terminal); purchased DiscoveRx KINOMEscan

[4] = target: T4, TESK1 (Homo sapiens, UniProt Q15569)
T4 construct: purchased DiscoveRx KINOMEscan

[5] = target: T5, KIT (Homo sapiens, UniProt P10721)
T5 construct: purchased DiscoveRx KINOMEscan

[6] = target: T6, MAP3K4 (Homo sapiens, UniProt Q9Y6R4)
T6 construct: purchased DiscoveRx KINOMEscan

[7] = target: T7, LZK (Homo sapiens, UniProt O43283)
T7 construct: purchased DiscoveRx KINOMEscan

[8] = target: T8, MAP4K5 (Homo sapiens, UniProt Q9Y4K4)
T8 construct: purchased DiscoveRx KINOMEscan

[9] = target: T9, EPHB1 (Homo sapiens, UniProt P54762)
T9 construct: purchased DiscoveRx KINOMEscan

[10] = target: T10, GSK3B (Homo sapiens, UniProt P49841)
T10 construct: purchased DiscoveRx KINOMEscan

[11] = target: T11, CSNK2A2 (Homo sapiens, UniProt P19784)
T11 construct: purchased DiscoveRx KINOMEscan

[12] = target: T12, ERK3 (Homo sapiens, UniProt Q16659)
T12 construct: purchased DiscoveRx KINOMEscan

[13] = target: T13, NEK10 (Homo sapiens, UniProt Q6ZWH5)
T13 construct: purchased DiscoveRx KINOMEscan

[14] = target: T14, MYLK (Homo sapiens, UniProt Q15746)
T14 construct: purchased DiscoveRx KINOMEscan

[15] = target: T15, AURKB (Homo sapiens, UniProt Q96GD4)
T15 construct: purchased DiscoveRx KINOMEscan

[16] = target: T16, SLK (Homo sapiens, UniProt Q9H2G2)
T16 construct: purchased DiscoveRx KINOMEscan

[17] = target: T17, AKT3 (Homo sapiens, UniProt Q9Y243)
T17 construct: purchased DiscoveRx KINOMEscan

[18] = target: T18, NEK4 (Homo sapiens, UniProt P51957)
T18 construct: purchased DiscoveRx KINOMEscan

[19] = target: T19, LIMK1 (Homo sapiens, UniProt P53667)
T19 construct: purchased DiscoveRx KINOMEscan

[20] = target: T20, MAST1 (Homo sapiens, UniProt Q9Y2H9)
T20 construct: purchased DiscoveRx KINOMEscan

[21] = target: T21, CDKL5 (Homo sapiens, UniProt O76039)
T21 construct: purchased DiscoveRx KINOMEscan

[22] = target: T22, RIPK5 (Homo sapiens, UniProt Q6XUX3)
T22 construct: purchased DiscoveRx KINOMEscan

[23] = target: T23, ABL1(H396P)-phosphorylated (Homo sapiens, UniProt P00519, H396P)
T23 construct: purchased DiscoveRx (KINOMEscan service)

[24] = target: T24, FGFR4 (Homo sapiens, UniProt P22455)
T24 construct: purchased DiscoveRx KINOMEscan

[25] = target: T25, IGF1R (Homo sapiens, UniProt P08069)
T25 construct: purchased DiscoveRx KINOMEscan

[26] = target: T26, MAK (Homo sapiens, UniProt P20794)
T26 construct: purchased DiscoveRx KINOMEscan

[27] = target: T27, FRK (Homo sapiens, UniProt P42685)
T27 construct: purchased DiscoveRx KINOMEscan

[28] = target: T28, MLK2 (Homo sapiens, UniProt Q02779)
T28 construct: purchased DiscoveRx KINOMEscan

[29] = target: T29, EGFR (Homo sapiens, UniProt P00533)
T29 construct: purchased DiscoveRx KINOMEscan

[30] = target: T30, STK33 (Homo sapiens, UniProt Q9BYT3)
T30 construct: purchased DiscoveRx KINOMEscan

[31] = target: T31, CDC2L1 (Homo sapiens, UniProt P21127)
T31 construct: purchased DiscoveRx KINOMEscan

[32] = target: T32, JAK1(JH1domain-catalytic) (Homo sapiens, UniProt P23458)
T32 construct: JAK1(JH1domain-catalytic); purchased DiscoveRx KINOMEscan

[33] = target: T33, RET(V804M) (Homo sapiens, UniProt P07949, V804M)
T33 construct: purchased DiscoveRx KINOMEscan

[34] = target: T34, ABL1(T315I)-nonphosphorylated (Homo sapiens, UniProt P00519, T315I)
T34 construct: purchased DiscoveRx (KINOMEscan service)

[35] = target: T35, FLT3 (Homo sapiens, UniProt P36888)
T35 construct: purchased DiscoveRx KINOMEscan

[36] = target: T36, ABL1-phosphorylated (Homo sapiens, UniProt P00519)
T36 construct: purchased DiscoveRx

[37] = target: T37, ZAK (Homo sapiens, UniProt Q9NYL2)
T37 construct: purchased DiscoveRx

[38] = target: T38, CSNK1A1L (Homo sapiens, UniProt Q8N752)
T38 construct: purchased DiscoveRx KINOMEscan

[39] = target: T39, RSK1(Kin.Dom.2-C-terminal) (Homo sapiens, UniProt Q15418)
T39 construct: RSK1(Kin.Dom.2-C-terminal); purchased DiscoveRx KINOMEscan

[40] = target: T40, SNRK (Homo sapiens, UniProt Q9NRH2)
T40 construct: purchased DiscoveRx KINOMEscan

[41] = target: T41, LATS2 (Homo sapiens, UniProt Q9NRM7)
T41 construct: purchased DiscoveRx KINOMEscan

[42] = target: T42, ACVR2A (Homo sapiens, UniProt P27037)
T42 construct: purchased DiscoveRx

T6 sequence (Q9Y6R4 whole entry): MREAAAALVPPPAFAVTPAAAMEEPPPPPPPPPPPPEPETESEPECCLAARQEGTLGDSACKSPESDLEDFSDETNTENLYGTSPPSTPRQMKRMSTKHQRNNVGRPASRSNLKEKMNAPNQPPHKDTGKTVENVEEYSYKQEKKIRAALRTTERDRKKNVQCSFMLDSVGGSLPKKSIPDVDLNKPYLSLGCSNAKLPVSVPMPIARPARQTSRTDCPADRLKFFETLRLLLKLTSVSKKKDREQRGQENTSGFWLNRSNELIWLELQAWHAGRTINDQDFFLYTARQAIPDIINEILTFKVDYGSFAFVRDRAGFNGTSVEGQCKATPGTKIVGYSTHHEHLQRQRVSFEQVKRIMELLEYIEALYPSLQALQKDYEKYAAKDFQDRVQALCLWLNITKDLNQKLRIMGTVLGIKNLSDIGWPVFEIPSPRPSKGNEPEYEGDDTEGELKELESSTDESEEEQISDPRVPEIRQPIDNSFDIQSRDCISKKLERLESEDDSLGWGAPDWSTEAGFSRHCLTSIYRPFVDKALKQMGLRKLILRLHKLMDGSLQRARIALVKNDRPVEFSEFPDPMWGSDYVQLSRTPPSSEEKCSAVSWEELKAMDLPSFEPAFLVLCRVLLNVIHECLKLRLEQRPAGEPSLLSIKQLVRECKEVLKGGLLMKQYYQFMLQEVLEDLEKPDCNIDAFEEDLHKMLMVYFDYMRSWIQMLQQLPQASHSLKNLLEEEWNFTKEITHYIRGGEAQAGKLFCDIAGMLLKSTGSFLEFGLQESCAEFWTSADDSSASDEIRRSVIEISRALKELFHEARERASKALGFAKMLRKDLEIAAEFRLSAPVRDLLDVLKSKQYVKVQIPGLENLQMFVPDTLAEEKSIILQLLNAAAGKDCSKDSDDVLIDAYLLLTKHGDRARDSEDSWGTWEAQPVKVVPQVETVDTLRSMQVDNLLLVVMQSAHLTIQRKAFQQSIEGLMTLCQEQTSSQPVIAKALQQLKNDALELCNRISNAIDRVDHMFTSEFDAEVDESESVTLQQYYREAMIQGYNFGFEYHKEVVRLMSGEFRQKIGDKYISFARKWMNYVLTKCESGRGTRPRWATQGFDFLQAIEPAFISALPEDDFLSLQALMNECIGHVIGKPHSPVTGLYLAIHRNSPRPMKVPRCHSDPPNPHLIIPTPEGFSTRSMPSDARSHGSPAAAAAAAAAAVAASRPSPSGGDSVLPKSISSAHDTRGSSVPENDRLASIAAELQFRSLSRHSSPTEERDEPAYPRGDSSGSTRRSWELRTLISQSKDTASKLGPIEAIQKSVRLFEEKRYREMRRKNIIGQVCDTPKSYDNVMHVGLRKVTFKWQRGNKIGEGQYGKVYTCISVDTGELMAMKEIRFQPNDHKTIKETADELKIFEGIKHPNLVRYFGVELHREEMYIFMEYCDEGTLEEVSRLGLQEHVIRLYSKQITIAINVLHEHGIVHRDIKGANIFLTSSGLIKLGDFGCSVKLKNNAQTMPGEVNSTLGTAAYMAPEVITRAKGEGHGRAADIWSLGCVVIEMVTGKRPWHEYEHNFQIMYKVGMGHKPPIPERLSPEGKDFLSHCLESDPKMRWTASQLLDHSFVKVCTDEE
T16 sequence (Q9H2G2 whole entry): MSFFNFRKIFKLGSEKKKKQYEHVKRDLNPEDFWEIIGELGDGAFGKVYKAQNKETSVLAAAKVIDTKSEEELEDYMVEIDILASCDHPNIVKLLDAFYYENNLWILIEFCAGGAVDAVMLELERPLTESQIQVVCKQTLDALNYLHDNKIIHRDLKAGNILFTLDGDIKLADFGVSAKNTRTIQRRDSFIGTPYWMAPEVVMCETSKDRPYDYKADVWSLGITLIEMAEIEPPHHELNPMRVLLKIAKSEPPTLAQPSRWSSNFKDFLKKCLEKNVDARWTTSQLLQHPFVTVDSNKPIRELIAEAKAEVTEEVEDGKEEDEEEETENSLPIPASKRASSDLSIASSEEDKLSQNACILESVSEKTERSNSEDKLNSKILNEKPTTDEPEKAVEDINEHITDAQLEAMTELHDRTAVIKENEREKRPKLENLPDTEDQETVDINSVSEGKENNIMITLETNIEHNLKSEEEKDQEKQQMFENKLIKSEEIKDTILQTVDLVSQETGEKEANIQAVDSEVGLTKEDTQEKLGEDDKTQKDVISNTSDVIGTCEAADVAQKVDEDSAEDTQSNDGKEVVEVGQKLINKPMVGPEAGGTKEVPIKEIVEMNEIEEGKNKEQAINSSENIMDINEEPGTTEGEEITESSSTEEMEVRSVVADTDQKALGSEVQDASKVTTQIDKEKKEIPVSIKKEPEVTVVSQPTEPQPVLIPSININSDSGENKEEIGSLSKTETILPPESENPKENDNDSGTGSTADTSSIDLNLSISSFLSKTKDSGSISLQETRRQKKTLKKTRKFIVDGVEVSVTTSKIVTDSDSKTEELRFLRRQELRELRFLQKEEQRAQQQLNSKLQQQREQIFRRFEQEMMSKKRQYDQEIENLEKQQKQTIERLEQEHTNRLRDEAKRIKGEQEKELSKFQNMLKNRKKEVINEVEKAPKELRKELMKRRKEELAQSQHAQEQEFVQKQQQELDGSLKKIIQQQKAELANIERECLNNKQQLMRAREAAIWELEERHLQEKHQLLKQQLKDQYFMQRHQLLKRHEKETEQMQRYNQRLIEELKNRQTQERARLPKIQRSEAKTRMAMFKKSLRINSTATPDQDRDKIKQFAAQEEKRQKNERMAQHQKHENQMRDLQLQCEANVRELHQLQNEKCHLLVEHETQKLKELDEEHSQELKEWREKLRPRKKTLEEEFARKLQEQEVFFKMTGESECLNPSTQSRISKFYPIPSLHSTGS
T37 sequence (Q9NYL2 whole entry): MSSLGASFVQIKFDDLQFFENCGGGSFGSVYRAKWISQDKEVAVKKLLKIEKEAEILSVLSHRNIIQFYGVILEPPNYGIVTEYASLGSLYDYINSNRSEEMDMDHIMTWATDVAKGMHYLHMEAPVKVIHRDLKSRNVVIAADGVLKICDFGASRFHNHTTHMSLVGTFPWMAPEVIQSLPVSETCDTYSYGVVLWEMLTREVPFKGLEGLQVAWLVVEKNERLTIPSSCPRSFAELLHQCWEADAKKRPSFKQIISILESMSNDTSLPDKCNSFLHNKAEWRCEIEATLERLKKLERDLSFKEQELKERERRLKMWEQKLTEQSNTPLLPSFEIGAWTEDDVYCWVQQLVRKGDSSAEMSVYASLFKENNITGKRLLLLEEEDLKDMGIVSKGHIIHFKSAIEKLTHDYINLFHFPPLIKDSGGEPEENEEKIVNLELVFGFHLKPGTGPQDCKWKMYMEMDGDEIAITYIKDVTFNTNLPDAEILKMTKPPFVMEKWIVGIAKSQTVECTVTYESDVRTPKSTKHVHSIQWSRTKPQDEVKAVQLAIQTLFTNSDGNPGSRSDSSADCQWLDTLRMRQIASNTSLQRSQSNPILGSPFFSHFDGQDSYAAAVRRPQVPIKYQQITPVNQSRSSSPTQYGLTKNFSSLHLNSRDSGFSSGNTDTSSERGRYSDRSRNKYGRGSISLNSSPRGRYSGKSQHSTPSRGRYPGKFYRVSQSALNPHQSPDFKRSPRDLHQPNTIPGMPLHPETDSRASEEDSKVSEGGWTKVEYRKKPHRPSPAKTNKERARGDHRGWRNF
T18 sequence (P51957 whole entry): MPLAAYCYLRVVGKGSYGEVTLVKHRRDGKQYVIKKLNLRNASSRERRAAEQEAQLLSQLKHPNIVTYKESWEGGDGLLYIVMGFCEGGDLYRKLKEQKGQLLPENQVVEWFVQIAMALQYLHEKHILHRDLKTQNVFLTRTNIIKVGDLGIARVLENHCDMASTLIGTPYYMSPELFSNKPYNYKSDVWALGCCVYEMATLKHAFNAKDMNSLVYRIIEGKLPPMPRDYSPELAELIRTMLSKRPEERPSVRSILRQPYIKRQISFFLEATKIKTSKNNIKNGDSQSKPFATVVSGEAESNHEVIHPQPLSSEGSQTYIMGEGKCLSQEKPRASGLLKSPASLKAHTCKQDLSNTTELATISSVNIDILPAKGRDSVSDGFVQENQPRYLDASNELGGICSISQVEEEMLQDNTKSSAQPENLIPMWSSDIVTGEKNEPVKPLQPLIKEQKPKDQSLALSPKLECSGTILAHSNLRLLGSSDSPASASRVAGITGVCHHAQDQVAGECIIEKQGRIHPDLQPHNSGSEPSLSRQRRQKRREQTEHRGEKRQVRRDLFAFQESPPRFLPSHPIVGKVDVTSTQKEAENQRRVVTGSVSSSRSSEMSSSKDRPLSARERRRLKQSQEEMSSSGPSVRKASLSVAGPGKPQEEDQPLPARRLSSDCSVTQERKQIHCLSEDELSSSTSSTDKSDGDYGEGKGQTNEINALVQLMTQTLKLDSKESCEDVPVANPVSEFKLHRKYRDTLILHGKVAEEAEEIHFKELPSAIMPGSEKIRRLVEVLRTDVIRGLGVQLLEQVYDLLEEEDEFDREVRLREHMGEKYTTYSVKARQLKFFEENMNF
T38 sequence (Q8N752 whole entry): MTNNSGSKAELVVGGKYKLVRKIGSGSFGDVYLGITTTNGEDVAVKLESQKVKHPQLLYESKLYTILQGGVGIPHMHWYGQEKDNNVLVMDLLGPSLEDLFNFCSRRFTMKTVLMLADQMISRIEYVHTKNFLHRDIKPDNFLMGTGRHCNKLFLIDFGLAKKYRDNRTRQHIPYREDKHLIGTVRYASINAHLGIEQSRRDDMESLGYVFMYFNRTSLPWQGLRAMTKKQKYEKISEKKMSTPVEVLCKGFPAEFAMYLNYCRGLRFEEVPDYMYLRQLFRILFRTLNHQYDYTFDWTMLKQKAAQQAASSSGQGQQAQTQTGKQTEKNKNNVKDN
T32 sequence (P23458 875-1154 limits assumed): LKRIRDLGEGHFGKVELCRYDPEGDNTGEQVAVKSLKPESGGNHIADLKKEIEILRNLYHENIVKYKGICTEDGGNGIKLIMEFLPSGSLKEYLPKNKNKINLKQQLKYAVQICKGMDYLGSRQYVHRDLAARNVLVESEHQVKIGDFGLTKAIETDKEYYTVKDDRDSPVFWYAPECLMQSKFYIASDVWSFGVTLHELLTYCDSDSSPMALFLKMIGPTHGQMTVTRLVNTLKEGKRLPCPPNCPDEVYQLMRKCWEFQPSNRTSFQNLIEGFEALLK

CCN(C(=O)CO)[C@H]1CN(/C(=N\C#N)Nc2cccc(OC(F)F)c2)N=C1c1ccc(Cl)c(Cl)c1 [(S)-4]
remaining binding at 1 µM [1]: 100% | remaining binding at 1 µM [2]: 88% | remaining binding at 1 µM [3]: 93% | remaining binding at 1 µM [4]: 94% | remaining binding at 1 µM [5]: 100% | remaining binding at 1 µM [6]: 75% | remaining binding at 1 µM [7]: 83% | remaining binding at 1 µM [8]: 100% | remaining binding at 1 µM [9]: 94% | remaining binding at 1 µM [10]: 88% | remaining binding at 1 µM [11]: 56% | remaining binding at 1 µM [12]: 77% | remaining binding at 1 µM [13]: 100% | remaining binding at 1 µM [14]: 86% | remaining binding at 1 µM [15]: 93% | remaining binding at 1 µM [16]: 66% | remaining binding at 1 µM [17]: 100% | remaining binding at 1 µM [18]: 100% | remaining binding at 1 µM [19]: 100% | remaining binding at 1 µM [20]: 83% | remaining binding at 1 µM [21]: 100% | remaining binding at 1 µM [22]: 90% | remaining binding at 1 µM [23]: 88% | remaining binding at 1 µM [24]: 71% | remaining binding at 1 µM [25]: 97% | remaining binding at 1 µM [26]: 74% | remaining binding at 1 µM [27]: 77% | remaining binding at 1 µM [28]: 77% | remaining binding at 1 µM [29]: 99% | remaining binding at 1 µM [30]: 83% | remaining binding at 1 µM [31]: 97% | remaining binding at 1 µM [32]: 85% | remaining binding at 1 µM [33]: 100% | remaining binding at 1 µM [34]: 77% | remaining binding at 1 µM [35]: 92% | remaining binding at 1 µM [36]: 90% | remaining binding at 1 µM [37]: 95% | remaining binding at 1 µM [38]: 94% | remaining binding at 1 µM [39]: 100% | remaining binding at 1 µM [40]: 85% | remaining binding at 1 µM [41]: 100% | remaining binding at 1 µM [42]: 100%

Source: PMC4917279 (Journal of Medicinal Chemistry, 2016)
